# According to the NIST ThermoML archive (doi:10.1016/j.fluid.2012.12.014):
# ± gives the expanded uncertainty stated by the source.
# Settings: Liquid, Closed cell (Static) method
smiles,measurement,setting,value
O [water],vapor or sublimation pressure,383.2 K,142.5 ± 2.1 kPa
same,vapor or sublimation pressure,393.2 K,198.7 ± 2.2 kPa
same,vapor or sublimation pressure,403.2 K,270 ± 2.5 kPa
same,vapor or sublimation pressure,413.2 K,361.7 ± 2.8 kPa
same,vapor or sublimation pressure,423.2 K,476.1 ± 3 kPa
